Measurements published in patent publication US20250041461A1, “[177LU] LUTETIUM-PSMA I&T COMPOSITION AND DOSIMETRY, KIT, METHOD OF MAKING, AND METHOD OF USING THEREOF” (Curium US LLC, priority 2023, published 2025).
Like-named read-outs stand apart in the source and are kept apart here.

Experiments:
[1] = cited from earlier work
[2] = numerous studies; cited from earlier work
[3] = Example 10 dosimetry, 27 mCRPC patients, planar whole-body conjugate imaging and SPECT/CT, MIRD method; format: in vivo, human
Protocol: Radiation dosimetry of [^177Lu]Lu-PSMA-I&T was calculated in 27 patients with mCRPC based on biodistribution data from planar whole-body conjugate imaging at 1, 24, 48, 72, and 168 hours and, for 7 of them, SPECT/CT imaging at 48-72 hours post injection of their first cycle of [^177Lu]Lu-PSMA-I&T (6.8±10% GBq).
Regions of interest were drawn on the planar images.
Volumes of interest were constructed on the SPECT and CT
For each subject, kinetic data were modeled to determine
normalized number of disintegrations in organs and tissues, from which the absorbed dose estimates were computed using the MIRD method.

[4] = test system: prostate cancer; settings: in vivo; cited from earlier work
[5] = 27 patients, first cycle, 6.8 GBq, planar imaging
[6] = Bladder Wall, 27 patients, first cycle
[7] = Heart Wall, 27 patients, first cycle
[8] = Kidneys, 27 patients, first cycle
[9] = Lacrimal Glands, 27 patients, first cycle
[10] = Left Colon, 27 patients, first cycle
[11] = Liver, 27 patients, first cycle
[12] = Red Marrow, 27 patients, first cycle
[13] = Salivary Glands, 27 patients, first cycle
[14] = Spleen, 27 patients, first cycle
[15] = Thyroid, 27 patients, first cycle
[16] = cumulative administered activity of 27.2 GBq, four cycles of 6.8 GBq

In the case of `O=C([O-])CC[C@H](NC(=O)N[C@@H](CCCCNC(=O)CCCCCCC(=O)NCCCC[C@@H](NC(=O)[C@@H](Cc1ccccc1)NC(=O)[C@@H](Cc1ccc(O)c(I)c1)NC(=O)CC[C@H](C(=O)[O-])N1CCN(CC(=O)[O-])CCN(CC(=O)[O-])CCN(CC(=O)[O-])CC1)C(=O)[O-])C(=O)[O-])C(=O)[O-].[177Lu+3].[H+].[H+].[H+].[H+].[H+]` [^177Lu-PSMA I&T, (3S,7S,26R,29R,32R,37R)-29-benzyl-32-(4-hydroxy-3-iodobenzyl)-5,13,20,28,31,34-hexaoxo-37-(4,7,10-tris(carboxymethyl)-1,4,7,10-tetraazacyclododecan-1-yl)-4,6,12,21,27,30,33-heptaazaheptatriacontane-1,3,7,26,37-pentacarboxylic acid; lutetium-177 (III)], the “Effective Dose, Whole body, Range” value ([1]; Second cycle) is given as 0.03-0.11 Sv/GBq, the “Absorbed Dose for Tumor Lesions, Lung metastases, Mean ± SD” value ([1]; Third cycle, n 1) is given as 0.94 Gy/GBq and the “Absorbed Dose for Tumor Lesions, Lymph node metastases, Mean ± SD” value ([1]; Third cycle, n 1) is given as 2.6 Gy/GBq. The “Absorbed Dose for Tumor Lesions, Lymph node metastases, Range” value ([1]; Third cycle, n 1) was 18.87 Gy/GBq, the “Absorbed Dose for Tumor Lesions, Liver metastases, Mean ± SD” value ([1]; Third cycle, n 2) was 0.95 Gy/GBq and the “Absorbed Dose for Tumor Lesions, Liver metastases, Range” value ([1]; Third cycle, n 2) was 0.47-1.42 Gy/GBq. The “Absorbed Dose for Tumor Lesions, Bone metastases, Mean ± SD” value ([1]; Third cycle, n 10) was 3.2 ± 2.5 Gy/GBq, the “Absorbed Dose for Tumor Lesions, Bone metastases, Range” value ([1]; Third cycle, n 10) was 1.11-7.99 Gy/GBq and the “Absorbed Dose for Tumor Lesions, All metastases, Mean ± SD” value ([1]; Third cycle, n 14) was 2.7 ± 2.3 Gy/GBq. The “Absorbed Dose for Tumor Lesions, All metastases, Range” value ([1]; Third cycle, n 14) was 0.94-7.99 Gy/GBq, the “Absorbed Dose, Kidneys, Mean ± SD” value ([1]; Third cycle) was 0.73 ± 0.22 Gy/GBq and the “Absorbed Dose, Kidneys, Range” value ([1]; Third cycle) was 0.42-0.93 Gy/GBq. The “Absorbed Dose, Lacrimal glands, Mean ± SD” value ([1]; Third cycle) was 3.5 ± 1.4 Gy/GBq, the “Absorbed Dose, Lacrimal glands, Range” value ([1]; Third cycle) was 2.41-5.04 Gy/GBq and the “Absorbed Dose, Liver, Mean ± SD” value ([1]; Third cycle) was 0.12 ± 0.06 Gy/GBq. The “Absorbed Dose, Liver, Range” value ([1]; Third cycle) was 0.07-0.21 Gy/GBq, the “Absorbed Dose, Parotid glands, Mean ± SD” value ([1]; Third cycle) was 0.49 Gy/GBq and the “Absorbed Dose, Parotid glands, Range” value ([1]; Third cycle) was 0.32-0.64 Gy/GBq. For the same molecule, the “Absorbed Dose, Submandibular glands, Mean ± SD” value ([1]; Third cycle) was 0.83 ± 0.59 Gy/GBq, the “Absorbed Dose, Submandibular glands, Range” value ([1]; Third cycle) was 0.33-1.68 Gy/GBq and the “Effective Dose, Whole body, Mean ± SD” value ([1]; Third cycle) was 0.06 Sv/GBq. The “Effective Dose, Whole body, Range” value ([1]; Third cycle) was 0.03-0.10 Sv/GBq, the “mean whole-body effective dose” value ([1]; all cycles) was 0.41±0.18 Sv and the “mean whole-body effective dose per GBq” value ([1]; all cycles) was 0.06 Sv/GBq. For the same molecule, the safety and tolerability [2] was “safe and well tolerated”, the “absorbed dose, kidneys” value [3, 5] was 0.73 Gy/GBq and the “absorbed dose, lacrimal glands” value [3, 5] was 1.2 Gy/GBq. The “average dose, red marrow” value [3, 5] was 0.034 Gy/GBq, the “average dose, salivary glands” value [3, 5] was 0.34 Gy/GBq and the “dose estimate, Max” value [3, 6] was 0.36 mGy/MBq or Gy/GBq. The “dose estimate, Mean” value [3, 6] was 0.33 mGy/MBq or Gy/GBq, the “dose estimate, Min” value [3, 6] was 0.14 mGy/MBq or Gy/GBq and the “Absorbed Dose, Mean” value ([3]; Bladder, SPLASH) was 0.33 Gy/GBq. For the same molecule, the “Absorbed Dose, Mean” value ([3]; Bone Marrow, SPLASH) was 0.034 Gy/GBq, the “dose estimate, Max” value [3, 7] was 0.15 mGy/MBq or Gy/GBq and the “dose estimate, Mean” value [3, 7] was 0.036 mGy/MBq or Gy/GBq. The “dose estimate, Min” value [3, 7] was 0.017 mGy/MBq or Gy/GBq, the “dose estimate, Mean” value ([3]; Heart Wall, Splash) was 0.04 Gy/GBq and the “Absorbed Dose, Mean” value ([3]; Heart, SPLASH) was 0.036 Gy/GBq. The “dose estimate, Max” value [3, 8] was 1.8 mGy/MBq or Gy/GBq, the “dose estimate, Mean” value [3, 8] was 0.73 mGy/MBq or Gy/GBq and the “dose estimate, Min” value [3, 8] was 0.22 mGy/MBq or Gy/GBq. The “Absorbed Dose, Mean” value ([3]; Kidneys, Splash) was 0.73 Gy/GBq, the “dose estimate, Mean” value ([3]; Kidneys, Splash) was 0.73 Gy/GBq and the “dose estimate, Max” value [3, 9] was 6.7 mGy/MBq or Gy/GBq. The “dose estimate, Mean” value [3, 9] was 1.2 mGy/MBq or Gy/GBq, the “dose estimate, Min” value [3, 9] was 0.38 mGy/MBq or Gy/GBq and the “Absorbed Dose, Mean” value ([3]; Lacrimal Glands, SPLASH) was 1.2 Gy/GBq. For the same molecule, the “dose estimate, Mean” value ([3]; Lacrimal gland, Splash) was 1.20 Gy/GBq, the “dose estimate, Max” value [3, 10] was 1.5 mGy/MBq or Gy/GBq and the “dose estimate, Mean” value [3, 10] was 0.52 mGy/MBq or Gy/GBq. The “dose estimate, Min” value [3, 10] was 0.013 mGy/MBq or Gy/GBq, the “Absorbed Dose, Mean” value ([3]; Left colon, Splash) was 0.52 Gy/GBq and the “dose estimate, Mean” value ([3]; Left colon, Splash) was 0.52 Gy/GBq. For the same molecule, the “dose estimate, Max” value [3, 11] was 0.24 mGy/MBq or Gy/GBq, the “dose estimate, Mean” value [3, 11] was 0.051 mGy/MBq or Gy/GBq and the “dose estimate, Min” value [3, 11] was 0.025 mGy/MBq or Gy/GBq. The “Absorbed Dose, Mean” value ([3]; Liver, Splash) was 0.051 Gy/GBq, the “dose estimate, Mean” value ([3]; Liver, Splash) was 0.051 Gy/GBq and the “dose estimate, Max” value [3, 12] was 0.11 mGy/MBq or Gy/GBq. The “dose estimate, Mean” value [3, 12] was 0.034 mGy/MBq or Gy/GBq, the “dose estimate, Min” value [3, 12] was 0.014 mGy/MBq or Gy/GBq and the “dose estimate, Mean” value ([3]; Red Marrow, Splash) was 0.03 Gy/GBq. The “dose estimate, Max” value [3, 13] was 1.5 mGy/MBq or Gy/GBq, the “dose estimate, Mean” value [3, 13] was 0.34 mGy/MBq or Gy/GBq and the “dose estimate, Min” value [3, 13] was 0.14 mGy/MBq or Gy/GBq. For the same molecule, the “Absorbed Dose, Mean” value ([3]; Salivary glands, Splash) was 0.34 Gy/GBq, the “dose estimate, Mean” value ([3]; Salivary glands, Splash) was 0.34 Gy/GBq and the “dose estimate, Max” value [3, 14] was 0.80 mGy/MBq or Gy/GBq. For the same molecule, the “dose estimate, Mean” value [3, 14] was 0.16 mGy/MBq or Gy/GBq, the “dose estimate, Min” value [3, 14] was 0.022 mGy/MBq or Gy/GBq and the “Absorbed Dose, Mean” value ([3]; Spleen, Splash) was 0.16 Gy/GBq. The “dose estimate, Mean” value ([3]; Spleen, Splash) was 0.16 Gy/GBq, the “dose estimate, Max” value [3, 15] was 0.77 mGy/MBq or Gy/GBq and the “dose estimate, Mean” value [3, 15] was 0.17 mGy/MBq or Gy/GBq. The “dose estimate, Min” value [3, 15] was 0.011 mGy/MBq or Gy/GBq, the “Absorbed Dose, Mean” value ([3]; Thyroid, Splash) was 0.17 Gy/GBq and the “dose estimate, Mean” value ([3]; Thyroid, Splash) was 0.17 Gy/GBq. The “dose estimate, Mean” value ([3]; Urinary bladder wall, Splash) was 0.33 Gy/GBq, the “cumulative absorbed dose, kidneys” value [3, 16] was 19.9 Gy and the “cumulative absorbed dose, red marrow” value [3, 16] was 0.91 Gy. The adverse effects [4] was “mainly transient adverse effects”.
